From patent publication US11478482B2 (NATIONAL UNIVERSITY CORPORATION TOKAI NATIONAL HIGHER …, priority 2018, dated 2022)
Structures can show the parent of a compound that is named as a salt.

Key:
MK-801-treated mice [1] = experiment: Visual discrimination test in MK-801-treated mice
MK-801-treated mice [2] = experiment: Social behavior test in MK-801-treated mice; format: in vivo
Experimental: Before conducting the experiment, test mice were kept in breeding cages one by one for 2 days. On the third day, mice that had been normally group-reared in another breeding cage were placed as invading mice into the cages of the test mice, and social behaviors of the test mice, such as tracking and sniffing, were measured for 5 minutes (Ibi et al., 2010).

MK-801-treated mice [3] = experiment: MK-801-induced hyperactivity (hypermobility); format: in vivo; conditions: MK-801 0.3 mg/kg
Experimental: (§1) Mice were placed one by one in measurement cages (25 cm×30 cm×18 cm). Immediately after the placement, spontaneous locomotor activity of mice was measured using a measurement device equipped with infrared light (Brain Science Idea, Osaka, Japan) (Ibi et al., 2010).
After 5 minutes, MK-801 (0.3 mg/kg) was intraperitoneally administered. The amount of locomotor activity started to be measured immediately after the administration (FIG. 6, panel A).

[4] = tested on: Meth-treated mice (C57BL/6); experiment: Meth-induced visual discrimination learning impairment in C57BL/6 mice (wild type); format: in vivo; conditions: for Meth-induced (1.0 mg/kg) visual discrimination impairment: meth-treated C57BL/6 mice
C57BL/6 mice = experiment: Spontaneous locomotor activity; format: in vivo
Experimental: as §1

ARHGAP10 mutant mice = experiment: Meth-induced visual discrimination learning impairment in ARHGAP10 mutant mice; format: in vivo; conditions: patient-type ARHGAP10 mutant mice
[5] = tested on: dopaminergic neurons induced from iPS cells of patients with ARHGAP10 mutation; experiment: Neurite length of iPS cell-derived dopaminergic neurons (IncuCyte NeuroTrack); format: cell-based, human; conditions: 72 hours after addition of inhibitor
Experimental: Dopaminergic neurons were induced from iPS cells of healthy subjects and patients with ARGHAP10 mutation. The induction method was performed according to a method already published (Transl Psychiatry. 2018 Jul. 19; 8(1): 129; and patent application PCT/JP2018/015304). To give an overview, iPS cells were cultured in an iPS cell medium supplemented with SB431542 (3 μM), CHIR99021 (3 μM), and dorsomorphin (3 μM) for 7 days (day 0 to day 7). The cultured cells were then dispersed with TrypLE™ select (Thermo Fisher Scientific Inc.) and passed through a cell strainer. […]
Dopaminergic progenitor cells were seeded onto a culture dish coated with poly-L-ornithine/laminin/fibronectin (poly-L-ornithine, laminin, and fibronectin), and an Rho kinase inhibitor was added simultaneously. […] The length of neurites after 72 hours was automatically measured with IncuCyte NeuroTrack (registered trademark).
Dopaminergic neurons were induced from iPS cells derived from healthy subjects and patients with ARHGAP10 mutation. […] The length of neurites was automatically detected and measured with IncuCyte (registered trademark) NeuroTrack (produced by Essen Bioscience).
The length of neurites (mm) per mm^2 was calculated for each field of view, and analysis was performed for 18 fields of view in each group. […]

[6] = fasudil 20 mg/kg i.p., listed as Fasudil, monohydrochloride hemihydrate
[7] = fasudil 20 mg/kg i.p., monohydrochloride hemihydrate

Question: How did the “correct response rate in the visual discrimination learning test” value (MK-801-treated mice [1]; MK-801 0.1 mg/kg i.p., C57BL/6 mice, saline-treated 90%) turn out when `C[C@]12N[C@H](Cc3ccccc31)c1ccccc12` [MK-801, (+)-MK-801 maleate] was run?
Answer: about 70%

Question: And the “time of social behavior” value (MK-801-treated mice [2]; MK-801 0.1 mg/kg i.p., compared with control mice)?
Answer: significantly reduced

Question: Which results are given for `O=S(=O)(c1cccc2cnccc12)N1CCCNCC1` [fasudil, hexahydro-1-(5-isoquinolinesulfonyl)-1H-1,4-diazepine monohydrochloride hemihydrate]?
Answer: MK-801-induced hypermobility (MK-801-treated mice [3]; fasudil 10 mg/kg i.p.): ±; MK-801-induced hypermobility (MK-801-treated mice [3]; [6]): Improved; MK-801-induced hypermobility (MK-801-treated mice [3]; [7]): significantly inhibited; Meth-induced (1.0 mg/kg) visual discrimination impairment ([4]; fasudil 3 mg/kg i.p.): Improvement; Meth-induced (1.0 mg/kg) visual discrimination impairment ([4]; fasudil 10 mg/kg i.p., listed as Fasudil, monohydrochloride hemihydrate): Improved; Meth-induced (1.0 mg/kg) visual discrimination impairment ([4]; fasudil 10 mg/kg i.p., monohydrochloride hemihydrate): improved; Meth-induced (1.0 mg/kg) visual discrimination impairment [4, 6]: Improved; Meth-induced (1.0 mg/kg) visual discrimination impairment [4, 7]: improved; Spontaneous locomotor activity (C57BL/6 mice; fasudil 20 mg/kg i.p., Table 1): ±; Spontaneous locomotor activity (C57BL/6 mice; fasudil 20 mg/kg i.p., versus saline-treated mice): same level of spontaneous locomotor activity as the saline-treated mice; Spontaneous locomotor activity (C57BL/6 mice; fasudil 30 mg/kg i.p., versus saline-treated mice, listed as Fasudil, monohydrochloride hemihydrate): Decreased; Spontaneous locomotor activity (C57BL/6 mice; fasudil 30 mg/kg i.p., versus saline-treated mice, monohydrochloride hemihydrate): significant decrease; MK-801-induced (1.0 mg/kg) visual discrimination disorder (MK-801-treated mice [1]; fasudil 3 mg/kg i.p.): ±; MK-801-induced (1.0 mg/kg) visual discrimination disorder (MK-801-treated mice [1]; [6]): Improved; MK-801-induced (1.0 mg/kg) visual discrimination disorder (MK-801-treated mice [1]; [7]): returned to the control level; test completion rate, latency to correct response, latency to obtain the reward (MK-801-treated mice [1]; fasudil 3, 10 or 20 mg/kg i.p., MK-801-treated mice): none of the groups showed significant changes; Meth-induced (0.3 mg/kg) visual discrimination impairment (ARHGAP10 mutant mice; fasudil 3 mg/kg i.p.): Improved; Meth-induced (0.3 mg/kg) visual discrimination impairment (ARHGAP10 mutant mice; fasudil 10 mg/kg i.p.): Improved; Meth-induced (0.3 mg/kg) visual discrimination impairment (ARHGAP10 mutant mice; [7]): significantly improved; length of neurites [5]: improving effects; MK-801-induced social behavior disorder (MK-801-treated mice [2]; fasudil 5 mg/kg i.p., MK-801 0.1 mg/kg): ±; MK-801-induced social behavior disorder (MK-801-treated mice [2]; fasudil 10 mg/kg i.p., MK-801 0.1 mg/kg, listed as Fasudil, monohydrochloride hemihydrate): Improved; MK-801-induced social behavior disorder (MK-801-treated mice [2]; fasudil 10 mg/kg i.p., MK-801 0.1 mg/kg, monohydrochloride hemihydrate): returned to the same level as the social behavior in control mice; MK-801-induced social behavior disorder (MK-801-treated mice [2]; fasudil 20 mg/kg i.p.): ±

Question: For Methamphetamine hydrochloride, which “correct response rate in the visual discrimination learning test” value ([4]; meth 1.0 mg/kg, C57BL/6 mice, saline-treated about 90%) is on record?
Answer: about 70%
